Read-outs that look alike come from different tables or passages of the source.
Biological target: Nrf2-Keap1 complex (Homo sapiens, UniProt Q14145)
Assay: cell-based
Assay type: cell-based
Settings: for activation at 16 µM / activation at 32 µM: 3 h; for activation at 16 µM: read-out: Activation 100 nL; for activation at 32 µM: read-out: Activation 200 nL
[1] = Table 2, 100 nL compound, screen run at 16 and 32 μM, 3 hr
[2] = Table 2, 200 nL compound, screen run at 16 and 32 μM, 3 hr

Sequence of Nrf2-Keap1 complex (Q14145 whole entry, one chain of several): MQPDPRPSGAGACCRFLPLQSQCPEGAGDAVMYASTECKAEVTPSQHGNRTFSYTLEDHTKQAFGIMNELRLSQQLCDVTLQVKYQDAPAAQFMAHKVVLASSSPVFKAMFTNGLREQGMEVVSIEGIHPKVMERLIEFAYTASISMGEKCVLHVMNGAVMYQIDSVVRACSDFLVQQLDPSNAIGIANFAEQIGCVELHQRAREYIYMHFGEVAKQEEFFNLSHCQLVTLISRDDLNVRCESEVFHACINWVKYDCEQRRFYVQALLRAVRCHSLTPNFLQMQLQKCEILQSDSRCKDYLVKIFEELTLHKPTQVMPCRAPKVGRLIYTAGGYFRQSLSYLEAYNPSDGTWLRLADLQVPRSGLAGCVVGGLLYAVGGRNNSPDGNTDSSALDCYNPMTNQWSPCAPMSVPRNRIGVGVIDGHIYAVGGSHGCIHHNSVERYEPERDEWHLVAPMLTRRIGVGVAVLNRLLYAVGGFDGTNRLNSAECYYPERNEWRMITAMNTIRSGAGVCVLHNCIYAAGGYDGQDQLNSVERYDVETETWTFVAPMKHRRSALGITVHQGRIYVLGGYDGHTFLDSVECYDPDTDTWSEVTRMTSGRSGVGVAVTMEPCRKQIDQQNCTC

Molecule	activation at 16 µM [%]	activation at 32 µM [%]	100 nL (luminescence) [1]	200 nL (luminescence) [2]	Activation 100 nL [%]	Activation 200 nL [%]	100 nL (luminescence)	200 nL (luminescence)	100 nL (luminescence) (Table 1A, 100 nL compound, screen run at 16 and 32 μM, 3 hr)	200 nL (luminescence) (Table 1A, 200 nL compound, screen run at 16 and 32 μM, 3 hr)	hit strength in the screen (words)
O=c1c(O)cccc2cc(O)c(O)c(O)c12 [PURPUROGALLIN]	156	112	3508	2420							
S=c1ccss1 [3H-1,2-DITHIOLE-3-THIONE]	295	127	5416	2832							
CC1(C)C(=O)C=C[C@]2(C)[C@H]3CC[C@@]4(C)[C@H](c5ccoc5)OC(=O)[C@H]5O[C@]54[C@]3(C)C(=O)C[C@@H]12 [DEACETOXY-7-OXOGEDUNIN]			1048	448	45	8					
AMSACRINEHYDROCHLORIDE [reference compound]					345	40	3384	1264			
CC(=O)NCCc1c[nH]c2ccc(O)cc12 [ACETYLSEROTONIN]	61	31							900	1056	
COC(=O)[C@H]1[C@H]2C[C@@H]3c4[nH]c5cc(OC)ccc5c4CCN3C[C@H]2C[C@@H](OC(=O)c2cc(OC)c(OC)c(OC)c2)[C@@H]1OC [RESERPINE, reference compound]	36	8	1120	572							
O=c1c(O)c(-c2ccccc2)oc2cccc(O)c12 [3,5-DIHYDROXYFLAVONE]	66	-17	1484	24							
COc1ccc(/C=C/C(=O)c2cc(O)ccc2O)cc1 [2′,5′-DIHYDROXY-4-METHOXYCHALCONE]	322	20	3188	800							
Cc1c(O)c(O)cc2c1CC=C1[C@@]2(C)CC[C@@]2(C)[C@@H]3C[C@](C)(C(=O)O)CC[C@]3(C)CC[C@]12C [DIHYDROCELASTROL]	62	-16	1196	88							modest hit
Cn1cnc([N+](=O)[O-])c1Sc1[nH]cnc2ncnc1-2 [AZATHIOPRINE, reference compound]	49	70					948	1804			modest hits
ClC1=C(Cl)C2(Cl)C3C(Cl)C(Cl)CC3C1(Cl)C2(Cl)Cl (stereo not shown) [CHLORDANE]	107	135	1796	3540							
O=C(/C=C/c1ccc(O)cc1)c1ccccc1O [2′,4-DIHYDROXYCHALCONE]	390	-9	3784	120							
O=c1cc(-c2cc(O)c(O)c(O)c2)oc2cc(O)cc(O)c12 [HIERACIN]			2502	1832	160	60					
CCc1cccc(CC)c1N(COC)C(=O)CCl [ALACHLOR]	261	194	3852	4892							

From US9200046B2, “Reporter system for high throughput screening of compounds and uses thereof” (priority 2011, dated 2015)
